Here are results for one compound from US7253166B2, “6-phenyl-7H-pyrrolo[2,3-d]pyrimidine compounds that induce neuronal differentiation in embryonic stem cells” (IRM LLC, priority 2003, dated 2007).

pIC50: −log10 of the molar value.

One assay concerns P19 cells. As to the kind of experiment: Neuronal differentiation in P19 cell monolayers (morphology, immunostaining with neuronal markers). As to conditions: 1 μM. It is filed as cell-based.
In assay [1] the test system is GSK-3β/β-catenin signaling. As to the kind of experiment: GSK-3β/β-catenin-dependent signaling, TCF/LEF (pTOPFLASH) luciferase reporter in P19 cells. It is filed as cell-based. As to conditions: 10 μM, 36 hours. As to the method: P19 cells are co-transfected with pTOPFLASH (containing four consensus LEF-1/TCF-1 binding sites, a minimal promoter and a firefly luciferase reporter) and renilla luciferase control reporter (Promega). […] Thirty-six hours later, cells are lysed and protein extracts are assayed for luciferase activity. The fold induction offirefly luciferase activity is normalized to renilla luciferase activity. The normalized activities are averaged over three experiments.
On the technique in general: A reporter such as luciferase makes a cellular process visible.

Another assay concerns the target c-Abl (Homo sapiens, UniProt P00519). The assay can be described thus: Kinase inhibition c-Abl. It is filed as biochemical.
The next assay has as its target HER-1 (Homo sapiens, UniProt P00533). As to the kind of experiment: Kinase inhibition HER-1. In kind it is biochemical.
The target of another assay is HER-2 (Homo sapiens, UniProt P04626). The assay can be described thus: Kinase inhibition HER-2. In kind it is biochemical.
In a further assay the target is KDR (Homo sapiens, UniProt P35968). The assay can be described thus: Kinase inhibition KDR. In kind it is biochemical.
The target in a further assay is PDGFR-β (Homo sapiens, UniProt P09619). As to the kind of experiment: Kinase inhibition PDGFR-β. In kind it is biochemical.
The target in another assay is c-Kit (Homo sapiens, UniProt P10721). As to the kind of experiment: Kinase inhibition c-Kit. It is filed as biochemical.
A further assay addresses Flt-4 (Homo sapiens, UniProt P35916). The assay can be described thus: Kinase inhibition Flt-4. It is filed as biochemical.
In another assay the target is Flt-1 (Homo sapiens, UniProt P17948). The assay can be described thus: Kinase inhibition Flt-1. It is filed as biochemical.
The target in another assay is Tek (Homo sapiens, UniProt Q02763). The assay can be described thus: Kinase inhibition Tek. It is filed as biochemical.
The next assay concerns the target c-src (Homo sapiens, UniProt P12931). The assay can be described thus: Kinase inhibition c-src. It is filed as biochemical.

Chain of HER-2 (P04626 23-1255, species assumed): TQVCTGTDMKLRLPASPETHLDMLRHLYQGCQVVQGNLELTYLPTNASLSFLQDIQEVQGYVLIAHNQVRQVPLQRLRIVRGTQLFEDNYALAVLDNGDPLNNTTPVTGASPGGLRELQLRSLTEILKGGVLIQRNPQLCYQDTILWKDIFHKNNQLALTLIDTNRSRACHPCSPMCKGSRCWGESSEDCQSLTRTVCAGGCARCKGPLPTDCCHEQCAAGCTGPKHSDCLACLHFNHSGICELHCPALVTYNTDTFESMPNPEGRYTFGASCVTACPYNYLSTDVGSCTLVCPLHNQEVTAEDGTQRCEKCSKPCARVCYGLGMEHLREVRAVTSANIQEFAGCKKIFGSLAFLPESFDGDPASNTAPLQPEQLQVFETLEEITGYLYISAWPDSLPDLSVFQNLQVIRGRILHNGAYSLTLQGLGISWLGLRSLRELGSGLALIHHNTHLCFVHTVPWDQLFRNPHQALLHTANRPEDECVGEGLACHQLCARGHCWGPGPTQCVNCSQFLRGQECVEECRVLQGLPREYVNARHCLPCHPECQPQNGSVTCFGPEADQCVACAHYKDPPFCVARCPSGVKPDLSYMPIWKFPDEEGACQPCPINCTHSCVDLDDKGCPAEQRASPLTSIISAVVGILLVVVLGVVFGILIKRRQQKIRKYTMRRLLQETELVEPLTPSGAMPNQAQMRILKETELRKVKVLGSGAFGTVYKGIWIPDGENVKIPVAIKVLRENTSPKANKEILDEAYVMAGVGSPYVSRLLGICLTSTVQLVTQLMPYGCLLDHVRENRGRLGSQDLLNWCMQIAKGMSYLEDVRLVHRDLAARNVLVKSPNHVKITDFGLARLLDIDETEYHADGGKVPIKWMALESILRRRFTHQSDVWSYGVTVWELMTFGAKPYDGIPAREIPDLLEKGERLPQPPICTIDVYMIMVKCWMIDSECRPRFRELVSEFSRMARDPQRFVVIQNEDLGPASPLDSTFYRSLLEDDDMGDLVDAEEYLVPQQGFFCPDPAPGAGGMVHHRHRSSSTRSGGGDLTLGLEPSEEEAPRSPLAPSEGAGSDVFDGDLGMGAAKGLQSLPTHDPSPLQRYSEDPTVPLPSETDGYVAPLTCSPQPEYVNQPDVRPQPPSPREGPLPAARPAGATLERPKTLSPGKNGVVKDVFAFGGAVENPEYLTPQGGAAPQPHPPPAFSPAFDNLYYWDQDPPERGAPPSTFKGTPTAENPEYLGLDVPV
Chain of c-Kit (P10721 26-976): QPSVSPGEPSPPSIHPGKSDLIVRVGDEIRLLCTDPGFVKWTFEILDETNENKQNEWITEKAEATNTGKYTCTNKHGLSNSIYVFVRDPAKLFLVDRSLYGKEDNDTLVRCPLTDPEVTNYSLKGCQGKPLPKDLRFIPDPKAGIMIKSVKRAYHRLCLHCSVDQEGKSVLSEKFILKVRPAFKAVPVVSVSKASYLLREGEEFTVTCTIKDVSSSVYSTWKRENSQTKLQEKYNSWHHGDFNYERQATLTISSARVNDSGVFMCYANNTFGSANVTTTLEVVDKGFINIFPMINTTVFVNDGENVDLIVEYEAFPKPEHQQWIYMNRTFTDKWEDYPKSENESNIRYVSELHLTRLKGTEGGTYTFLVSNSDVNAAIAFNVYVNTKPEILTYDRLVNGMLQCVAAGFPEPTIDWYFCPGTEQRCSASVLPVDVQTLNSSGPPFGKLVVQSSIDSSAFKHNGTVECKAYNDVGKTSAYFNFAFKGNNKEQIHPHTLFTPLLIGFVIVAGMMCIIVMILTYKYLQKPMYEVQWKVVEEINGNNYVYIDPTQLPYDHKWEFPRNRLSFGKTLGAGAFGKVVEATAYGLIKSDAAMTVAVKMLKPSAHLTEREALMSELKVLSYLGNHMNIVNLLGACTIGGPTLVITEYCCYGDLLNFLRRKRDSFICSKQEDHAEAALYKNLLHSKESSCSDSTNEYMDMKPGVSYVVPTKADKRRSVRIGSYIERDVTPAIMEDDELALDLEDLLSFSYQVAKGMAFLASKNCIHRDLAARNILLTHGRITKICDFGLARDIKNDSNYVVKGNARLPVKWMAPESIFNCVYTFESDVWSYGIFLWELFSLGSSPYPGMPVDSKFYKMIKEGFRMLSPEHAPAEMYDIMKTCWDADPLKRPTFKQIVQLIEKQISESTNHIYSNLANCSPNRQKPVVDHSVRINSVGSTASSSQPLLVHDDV
Chain of c-Abl (P00519 whole entry): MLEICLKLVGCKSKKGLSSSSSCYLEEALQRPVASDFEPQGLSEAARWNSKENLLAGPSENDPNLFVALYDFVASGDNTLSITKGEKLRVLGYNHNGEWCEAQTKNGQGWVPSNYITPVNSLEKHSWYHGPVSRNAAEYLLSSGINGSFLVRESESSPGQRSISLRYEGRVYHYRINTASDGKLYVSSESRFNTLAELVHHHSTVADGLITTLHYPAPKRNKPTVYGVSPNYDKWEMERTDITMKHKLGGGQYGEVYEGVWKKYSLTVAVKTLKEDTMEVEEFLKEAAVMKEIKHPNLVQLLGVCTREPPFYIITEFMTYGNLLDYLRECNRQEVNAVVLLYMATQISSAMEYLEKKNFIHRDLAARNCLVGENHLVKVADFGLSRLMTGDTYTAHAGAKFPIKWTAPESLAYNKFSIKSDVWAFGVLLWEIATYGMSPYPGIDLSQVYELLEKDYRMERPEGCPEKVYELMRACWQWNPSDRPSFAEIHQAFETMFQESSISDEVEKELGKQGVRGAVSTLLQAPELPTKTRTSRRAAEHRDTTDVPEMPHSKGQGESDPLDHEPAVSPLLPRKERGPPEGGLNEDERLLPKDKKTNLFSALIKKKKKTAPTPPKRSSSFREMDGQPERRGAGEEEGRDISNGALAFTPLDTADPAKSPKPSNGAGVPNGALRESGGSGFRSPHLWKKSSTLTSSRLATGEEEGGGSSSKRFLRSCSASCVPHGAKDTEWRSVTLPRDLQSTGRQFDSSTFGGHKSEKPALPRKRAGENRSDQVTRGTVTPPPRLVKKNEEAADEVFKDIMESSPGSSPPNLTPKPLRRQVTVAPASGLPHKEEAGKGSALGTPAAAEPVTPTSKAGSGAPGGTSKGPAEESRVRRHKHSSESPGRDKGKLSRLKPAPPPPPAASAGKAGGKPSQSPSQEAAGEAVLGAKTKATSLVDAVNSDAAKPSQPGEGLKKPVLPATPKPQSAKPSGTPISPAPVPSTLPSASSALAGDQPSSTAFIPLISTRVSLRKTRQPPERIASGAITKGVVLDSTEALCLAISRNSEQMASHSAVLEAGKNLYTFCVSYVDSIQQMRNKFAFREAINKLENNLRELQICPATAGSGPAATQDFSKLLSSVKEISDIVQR
Chain of HER-1 (P00533 25-1210, species assumed): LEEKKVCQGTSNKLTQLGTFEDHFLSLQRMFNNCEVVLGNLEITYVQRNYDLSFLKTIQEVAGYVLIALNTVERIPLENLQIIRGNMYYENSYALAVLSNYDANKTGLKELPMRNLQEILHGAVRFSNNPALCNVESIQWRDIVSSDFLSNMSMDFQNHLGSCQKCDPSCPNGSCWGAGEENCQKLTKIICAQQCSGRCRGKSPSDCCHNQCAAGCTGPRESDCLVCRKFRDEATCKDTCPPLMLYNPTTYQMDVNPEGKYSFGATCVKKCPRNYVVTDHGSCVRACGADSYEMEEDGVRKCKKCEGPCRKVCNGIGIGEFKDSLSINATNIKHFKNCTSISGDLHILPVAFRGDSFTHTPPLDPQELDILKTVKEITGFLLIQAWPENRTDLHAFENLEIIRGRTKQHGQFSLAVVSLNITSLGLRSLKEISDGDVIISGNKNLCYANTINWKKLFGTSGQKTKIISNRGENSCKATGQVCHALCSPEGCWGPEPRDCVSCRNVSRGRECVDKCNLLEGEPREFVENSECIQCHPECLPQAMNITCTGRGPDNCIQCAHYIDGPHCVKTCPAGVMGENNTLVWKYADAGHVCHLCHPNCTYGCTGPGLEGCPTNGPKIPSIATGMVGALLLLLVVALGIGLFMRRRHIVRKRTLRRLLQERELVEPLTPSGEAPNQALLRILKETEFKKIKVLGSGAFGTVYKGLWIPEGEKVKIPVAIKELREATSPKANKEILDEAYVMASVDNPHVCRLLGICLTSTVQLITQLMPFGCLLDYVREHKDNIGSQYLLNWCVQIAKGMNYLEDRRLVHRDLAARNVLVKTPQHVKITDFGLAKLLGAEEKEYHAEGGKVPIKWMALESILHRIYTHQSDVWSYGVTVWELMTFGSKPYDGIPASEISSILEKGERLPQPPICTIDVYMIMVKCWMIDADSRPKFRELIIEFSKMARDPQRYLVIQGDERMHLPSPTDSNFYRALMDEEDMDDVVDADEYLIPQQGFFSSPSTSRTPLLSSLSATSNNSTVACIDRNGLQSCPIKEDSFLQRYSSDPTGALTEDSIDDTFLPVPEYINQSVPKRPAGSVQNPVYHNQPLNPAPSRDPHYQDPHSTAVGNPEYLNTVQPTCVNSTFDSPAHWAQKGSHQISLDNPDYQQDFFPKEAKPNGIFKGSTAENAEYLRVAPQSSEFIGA
Chain of c-src (P12931 whole entry, species assumed): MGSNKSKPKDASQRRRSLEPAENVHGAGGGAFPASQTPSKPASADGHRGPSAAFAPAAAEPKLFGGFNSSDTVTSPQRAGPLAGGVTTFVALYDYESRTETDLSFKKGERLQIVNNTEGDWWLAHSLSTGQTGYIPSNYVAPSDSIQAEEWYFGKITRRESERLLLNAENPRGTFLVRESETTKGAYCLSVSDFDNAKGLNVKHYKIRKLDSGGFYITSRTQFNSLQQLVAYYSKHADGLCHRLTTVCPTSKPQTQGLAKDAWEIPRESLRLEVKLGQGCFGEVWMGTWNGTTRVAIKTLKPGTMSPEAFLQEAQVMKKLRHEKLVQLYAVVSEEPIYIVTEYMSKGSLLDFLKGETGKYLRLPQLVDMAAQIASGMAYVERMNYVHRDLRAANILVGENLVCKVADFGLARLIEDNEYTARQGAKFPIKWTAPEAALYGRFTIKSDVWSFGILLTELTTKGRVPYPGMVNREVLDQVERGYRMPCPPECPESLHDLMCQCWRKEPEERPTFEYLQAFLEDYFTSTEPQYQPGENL

In the case of `Nc1cccc(-c2cc3c(Oc4cccc(O)c4)ncnc3[nH]2)c1` [Example 1, 3-[6-(3-Amino-phenyl)-7H-pyrrolo[2,3-d]pyrimidin-4-yloxy]-phenol], the “differentiation of P19 cells into glial and muscle cells” value with P19 cells was “not detected”. Besides, the “nestin immunostaining of the remaining cells (neuronal progenitor cells)” value with P19 cells is reported as “immunostained positively for nestin”. For the same compound, the “cells differentiating specifically into neuronal lineages” value with P19 cells (monolayers of P19 cells, neuronal morphology and immunostaining with neuronal specific markers) is 30-40%. Also, the “increase in β-catenin induced TCF/LEF reporter activity” value in [1] was “eleven”. For the same compound, the inhibition at 10 µM on c-Abl (10 μM), at HER-1, against HER-2 (10 μM), against KDR, against PDGFR-β and on c-Kit (10 μM) was 100% throughout. Besides, the inhibition at 10 µM against Flt-4, against Flt-1, at Tek and at c-src was 100% throughout. Moreover, the pIC50 (in general, the negative decadic logarithm of the IC50, by convention in mol/L) at c-Abl (read-out: IC50 against c-Abl) is 8.35; at HER-2 (read-out: IC50 against HER-2), 7.52; at c-Kit (read-out: IC50 against c-Kit) it was 7.70.
